Laboratory results reported in patent US20260327225A1, “HETEROCYCLIC COMPOUNDS AS TRIGGERING RECEPTOR EXPRESSED ON MYELOID CELLS 2 AGONISTS AND METHODS OF USE” (VIGIL NEUROSCIENCE, INC., priority 2023, published 2026).

Each compound was assayed against T1, human TREM2 (Homo sapiens, UniProt Q9NZC2) (assay: TREM2 agonist potency by cellular phosphorylation of Syk (AlphaLisa) in HEK293T-hTREM2 cells expressing human TREM2 and DAP12). Conditions: not given.
T1 construct: expressed in transfected cells; host or cells: HEK293T-hTREM2 cells (HEK cell line expressing human TREM2 and DAP12)
Type: cell-based
Method: In vitro Measurement of Triggering Receptor Expressed on Myeloid Cells 2 activity using cellular phosphorylation of Spleen Tyrosine Kinase (“Syk”) Assays
Measurement of TREM2 agonist potency was done using a HEK cell line expressing human TREM2 and DAP12 (HEK293T-hTREM2 cells). Binding of small molecules to, and activation of, TREM2 increases the phosphorylation of Syk. The resultant levels of Syk phosphorylation are measured using a commercial AlphaLisa reagent kit. To perform the assay, HEK-hTREM2 cells were plated at 14,000 cells per well in a 384 well plate, in 25 μL of complete growth media and incubated at 37° C., 5% CO2 for 20-24 hours.
Prior to the assay, test compounds were diluted in the 384 well plates in assay buffer and allowed to equilibrate for 30 minutes. Growth media was removed from cell plates by inversion on blotting paper, and 25 μL of test articles in assay buffer was added to cells. Cells were incubated for 45 minutes at room temperature. After 45 minutes, assay buffer was removed and 10 μL of lysis buffer was added. Plates were shaken for 20 minutes at 350 RPM at room temperature. After complete lysis, AlphaLisa reagents were added to the lysate, and fluourescence intensity was measured using a Perkin Elmer Envision plate reader. Intensities were used to generate a standard curve, and % activation was calculated. Curve fitting was performed using Prism v9 software, log(agonist) vs response—variable slope (four parameters), and EC50s were calculated from the curve fit.
The results presented in Table B have been generated with the in vitro assay described above. This assay may be used to test any of the compounds described herein to assess and characterize a compound's ability to act as an agonist of TREM2.

T1 sequence (Q9NZC2 19-230): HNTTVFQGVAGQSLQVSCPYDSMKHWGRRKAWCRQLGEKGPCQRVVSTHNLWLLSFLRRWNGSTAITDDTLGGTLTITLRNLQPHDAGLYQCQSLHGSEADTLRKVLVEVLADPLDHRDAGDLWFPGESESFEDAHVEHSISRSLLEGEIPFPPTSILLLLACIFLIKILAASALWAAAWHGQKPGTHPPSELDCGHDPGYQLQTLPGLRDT
T1 sequence (O43914 22-113 partner): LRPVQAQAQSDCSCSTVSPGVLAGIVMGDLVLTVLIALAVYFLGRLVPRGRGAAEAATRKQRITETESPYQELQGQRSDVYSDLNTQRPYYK

| EC50 | Structure (SMILES) |
| --- | --- |
| < 100 nM | Cc1cc2c(-c3ccccc3)nc(N3C[C@@H](C)O[C@@H](c4cnn(C5CC5)c4)C3)nc2nc1C [Example 68, (2S,6R)-2-(1-cyclopropylpyrazol-4-yl)-4-(6,7-dimethyl-4-phenylpyrido[2,3-d]pyrimidin-2-yl)-6-methyl-morpholine] |
| 100 to 500 nM | Cc1cc2c(-n3cccc3)nc(N3C[C@@H](C)O[C@@H](c4cnn(C5CC5)c4)C3)nc2nc1C [Example 67, (2S,6R)-2-(1-cyclopropyl-pyrazol-4-yl)-4-(6,7-dimethyl-4-pyrrol-1-yl-pyrido[2,3-d]pyrimidin-2-yl)-6-methyl-morpholine] |

Same assay, conditions: HEK293 cells expressing hTREM2 and DAP12; 45 minutes at room temperature; Syk phosphorylation, AlphaLisa; read-out: hTREM2 EC50

| EC50 | Structure (SMILES) |
| --- | --- |
| < 100 nM | Cc1nc2nc(N3C[C@@H](C)O[C@@H](c4cnn(C5CC5)c4)C3)nc(C34CC(C#N)(C3)C4)c2nc1C [Example 102, 3-[2-[(2S,6R)-2-(1-cyclopropylpyrazol-4-yl)-6-methyl-morpholin-4-yl]-6,7-dimethyl-pteridin-4-yl]bicyclo[1.1.1]pentane-1-carbonitrile] |
| < 100 nM | Cc1nc2nc(N3C[C@@H](C)O[C@@H](c4cnn(C5CC5)c4)C3)nc(C34CC(C(F)F)(C3)C4)c2cc1C#N [Example 73, 2-((2S,6R)-2-(1-cyclopropyl-1H-pyrazol-4-yl)-6-methylmorpholino)-4-(3-(difluoromethyl)bicyclo[1.1.1]pentan-1-yl)-7-methylpyrido[2,3-d]pyrimidine-6-carbonitrile] |
| < 100 nM | COc1ncc([C@H]2C[C@@H](c3nc(C45CC(C(F)(F)F)(C4)C5)c4nc(C)c(C)nc4n3)CCO2)s1 (racemic) [Example 117, 2-methoxy-5-[rac-(2R,4S)-4-[6,7-dimethyl-4-[3-(trifluoromethyl)-1-bicyclo[1.1.1]pentanyl]pteridin-2-yl]tetrahydropyran-2-yl]thiazole] |
| 100 to 500 nM | Cc1nc2nc(N3C[C@@H](C)O[C@@H](c4ccnc(N(C)C)c4)C3)nc(C34CC(C(F)(F)F)(C3)C4)c2nc1C (racemic) [Example 142, N,N-dimethyl-4-[rac-(2S,6R)-4-[6,7-dimethyl-4-[3-(trifluoromethyl)-1-bicyclo[1.1.1]pentanyl]pteridin-2-yl]-6-methyl-morpholin-2-yl]pyridin-2-amine] |
| < 100 nM | Cc1nc2nc(C3CCOC(c4ccc5nnc(C)n5c4)C3)nc(-c3ccc(F)cc3F)c2nc1C (stereo not shown) [Example 99, 4-(2,4-difluorophenyl)-6,7-dimethyl-2-[2-(3-methyl[1,2,4]-triazolo[4,3-a]pyridin-6-yl)tetrahydropyran-4-yl]pteridine] |
| < 100 nM | Cc1cc2cc(C3CC(c4nc(-c5ccc(F)cc5F)c5nc(C)c(C)nc5n4)CCO3)ccn2n1 (stereo not shown) [Example 116, 4-(2,4-difluorophenyl)-6,7-dimethyl-2-[2-(2-methylpyrazolo-[1,5-a]pyridin-5-yl)tetrahydropyran-4-yl]pteridine] |
| < 100 nM | Cc1nc2nc([C@H]3CCO[C@@H](c4cnn(C5CC5)c4)C3)nc(C34C5C6C3C3C4C5C63C(F)(F)F)c2nc1C (stereo partly drawn) [Example 143, 2-((2R,4S)-2-(1-cyclopropyl-1H-pyrazol-4-yl)tetrahydro-2H-pyran-4-yl)-6,7-dimethyl-4-(4-(trifluoromethyl)-cuban-1-yl)pteridine] |
| > 500 nM | Cc1nc2nc(N3C[C@@H](C)O[C@@H](c4cnn(C5CC5)c4)C3)nc(-c3ccc(=O)n(C)c3)c2nc1C [Example 104, 5-[2-[(2S,6R)-2-(1-cyclopropylpyrazol-4-yl)-6-methyl-morpholin-4-yl]-6,7-dimethyl-pteridin-4-yl]-1-methyl-pyridin-2-one] |
| < 100 nM | Cc1nc2nc([C@H]3CCO[C@@H](c4cnn(C5CC5)c4)C3)nc(C34C5C6C7C5C3C7C64)c2nc1C (stereo partly drawn) [Example 140, 2-((2R,4S)-2-(1-cyclopropyl-1H-pyrazol-4-yl)tetrahydro-2H-pyran-4-yl)-6,7-dimethyl-4-(cuban-1-yl)pteridine] |
| > 500 nM | Cc1nc2nc(N3C[C@@H](C)O[C@@H](c4cnn(C5CC5)c4)C3)nc(-c3ccc(F)cc3F)c2cc1C(=O)N(C)C [Example 2, 2-((2S,6R)-2-(1-cyclopropyl-1H-pyrazol-4-yl)-6-methylmorpholino)-4-(2,4-difluorophenyl)-N,N-7-trimethylpyrido[2,3-d]pyrimidine-6-carboxamide] |
| < 100 nM | Cc1cc2c(-c3ccc(C(F)(F)F)cc3F)nc([C@H]3CCO[C@@H](c4cnn(C5CC5)c4)C3)nc2c(=O)n1C [Example 136, 2-[(2R,4S)-2-(1-cyclopropylpyrazol-4-yl)tetrahydropyran-4-yl]-4-[2-fluoro-4-(trifluoromethyl)phenyl]-6,7-dimethyl-pyrido[3,4-d]pyrimidin-8-one] |
| < 100 nM | Cc1nc2nc(N3C[C@@H](C)O[C@@H](c4cnn(C5CC5)c4)C3)nc(-c3ccc(F)cc3F)c2cc1C1=NCCO1 [Example 7, (2S,6R)-2-(1-cyclopropylpyrazol-4-yl)-4-[4-(2,4-difluorophenyl)-6-(4,5-dihydrooxazol-2-yl)-7-methyl-pyrido[2,3-d]pyrimidin-2-yl]-6-methyl-morpholine] |
| 100 to 500 nM | Cc1nc2nc(N3C[C@@H](C)O[C@@H](c4cnn(C5CC5)c4)C3)nc(C3CCC3)c2cc1C#N [Example 42, 4-cyclobutyl-2-((2S,6R)-2-(1-cyclopropyl-1H-pyrazol-4-yl)-6-methylmorpholino)-7-methylpyrido[2,3-d]pyrimidine-6-carbonitrile] |
| < 100 nM | Cc1nc2nc([C@H]3CCO[C@@H](c4cnn(C5CC5)c4)C3)nc(C34CC(C(F)(F)F)(C3)C4)c2cc1-c1cnn(C)c1 [Example 26, 2-((2R,4S)-2-(1-cyclopropyl-1H-pyrazol-4-yl)tetrahydro-2H-pyran-4-yl)-7-methyl-6-(1-methyl-1H-pyrazol-4-yl)-4-(3-(trifluoromethyl)bicyclo[1.1.1]pentan-1-yl)pyrido[2,3-d]pyrimidine] |
| 100 to 500 nM | Cc1nc2nc(N3CCO[C@@H](c4cnn(C)c4)C3)nc(C3CCCCC3)c2cc1C#N [Example 45, 4-cyclohexyl-7-methyl-2-[(2S)-2-(1-methyl-pyrazol-4-yl)morpholin-4-yl]pyrido[2,3-d]pyrimidine-6-carbonitrile] |
| < 100 nM | Cc1nc2nc([C@H]3CCO[C@@H](c4cn(C)c(=O)s4)C3)nc(C34CC(C(F)(F)F)(C3)C4)c2nc1C [Example 108, 5-[(2R,4S)-4-[6,7-dimethyl-4-[3-(trifluoromethyl)-1-bicyclo[1.1.1]pentanyl]pteridin-2-yl]tetrahydropyran-2-yl]-3-methyl-thiazol-2-one] |
| < 100 nM | COC(=O)c1cc2c(-c3ccc(F)cc3F)nc(N3C[C@@H](C)O[C@@H](c4cnn(C5CC5)c4)C3)nc2nc1C [Example 1, methyl 2-[(2S,6R)-2-(1-cyclopropylpyrazol-4-yl)-6-methyl-morpholin-4-yl]-4-(2,4-difluorophenyl)-7-methyl-pyrido[2,3-d]pyrimidine-6-carboxylate] |
| < 100 nM | Cc1nc2nc(N3C[C@@H](C)O[C@@H](c4cnn(C(F)F)c4)C3)nc(C34CC(C(F)(F)F)(C3)C4)c2cc1C#N [Example 66, 2-[(2S,6R)-2-[1-(difluoromethyl)pyrazol-4-yl]-6-methyl-morpholin-4-yl]-7-methyl-4-[3-(trifluoromethyl)-1-bicyclo[1.1.1]pentanyl]pyrido[2,3-d]pyrimidine-6-carbonitrile] |
| < 100 nM | Cc1nc2nc(N3C[C@@H](C)O[C@@H](c4cnn(C5CC5)c4)C3)nc(-c3ccc(F)cc3F)c2cc1C#N [Example 21, 2-[(2S,6R)-2-(1-cyclopropylpyrazol-4-yl)-6-methyl-morpholin-4-yl]-4-(2,4-difluorophenyl)-7-methyl-pyrido[2,3-d]pyrimidine-6-carbonitrile] |
| < 100 nM | Cc1nc2nc(C3CCOC(c4ccc5ncn(C)c5c4)C3)nc(-c3ccc(F)cc3F)c2nc1C (stereo not shown) [Example 98, 4-(2,4-difluorophenyl)-6,7-dimethyl-2-[2-(3-methylbenzimidazol-5-yl)tetrahydropyran-4-yl]pteridine] |
| 100 to 500 nM | CO[C@H]1CN(c2nc(-c3ccc(F)cc3F)c3nc(C)c(C)nc3n2)C[C@@H]1c1cn(C2CC2)nn1 (stereo in doubt) [Example 134, 2-[3-(1-cyclopropyl-triazol-4-yl)-4-methoxy-pyrrolidin-1-yl]-4-(2,4-difluorophenyl)-6,7-dimethyl-pteridine formic acid] |
| < 100 nM | Cc1nc2ccc(C3CC(c4nc(-c5ccc(F)cc5F)c5nc(C)c(C)nc5n4)CCO3)cc2s1 (stereo not shown) [Example 115, 6-[4-[4-(2,4-difluorophenyl)-6,7-dimethyl-pteridin-2-yl]tetrahydropyran-2-yl]-2-methyl-1,3-benzothiazole] |
| > 500 nM | Cc1nc2nc(C3CCOC(c4cnn5c4CCCC5)C3)nc(C34CC(C(F)(F)F)(C3)C4)c2nc1C (stereo not shown) [Example 123, 6,7-dimethyl-2-[2-(4,5,6,7-tetrahydropyrazolo[1,5-a]pyridin-3-yl)tetrahydropyran-4-yl]-4-[3-(trifluoromethyl)-1-bicyclo[1.1.1]pentanyl]pteridine] |
